Literature values in patent US9849145B2, “Pharmaceutical composition containing honeysuckle extract and antibiotics, pharmaceutical kit, and use of honeysuckle extract for preparation of drug” (priority 2011, dated 2017).

Tests used:
Design in all cases: key: Resistant; Sensitive; Intermediate degree (moderate resistance)
[1] = test system: Escherichia coli; conditions: clinical isolate, specimen 32042, urine; cited from earlier work
[2] = test system: Pseudomona aeruginosa; conditions: clinical isolate, specimen 12; cited from earlier work
[3] = test system: Klebsiella pneumoniae; conditions: clinical isolate, specimen 31853, urine; cited from earlier work
[4] = test system: Klebsiella pneumoniae; conditions: clinical isolate, specimen 31494, sputum; cited from earlier work
[5] = test system: Staphylococcus aureus; conditions: clinical isolate, specimen Y31692, secretion; cited from earlier work

Row | Compound | resistance of Escherichia coli to the antibiotic [1] | resistance of Pseudomona aeruginosa to the antibiotic [2] | resistance of Klebsiella pneumoniae to the antibiotic [3] | drug resistant spectrum of the experimental strain of Klebsiella pneumoniae [4] | resistance of Staphylococcus aureus to the antibiotic [5]
1 | piperacillin/tazobactam [TZP] | I | S | S | I | –
2 | CCN1CCN(C(=O)N[C@@H](C(=O)N[C@@H]2C(=O)N3C(C(=O)O)=C(CSc4nnnn4C)CS[C@H]23)c2ccc(O)cc2)C(=O)C1=O [CFP, cefoperazone] | – | S | – | – | –
3 | penicillin [PNE] | – | – | – | – | R
4 | amoxicillin/clavulanic acid [AMC] | I | – | S | I | –
5 | CO/N=C(\C(=O)N[C@@H]1C(=O)N2C(C(=O)O)=C(CSc3nc(=O)c(=O)[nH]n3C)CS[C@H]12)c1csc(N)n1 [CRO, ceftriaxone] | R | R | S | R | –
6 | CC(C)(O/N=C(\C(=O)N[C@@H]1C(=O)N2C(C(=O)[O-])=C(C[n+]3ccccc3)CS[C@H]12)c1csc(N)n1)C(=O)O [CAZ, ceftazidime] | R | S | S | S | –
7 | ampicillin/sulbactam [SAM] | – | R | – | – | S
8 | CO[C@H]1/C=C/O[C@@]2(C)Oc3c(C)c(O)c4c(O)c(c(/C=N/N5CCN(C)CC5)c(O)c4c3C2=O)NC(=O)/C(C)=C\C=C\[C@H](C)[C@H](O)[C@@H](C)[C@@H](O)[C@@H](C)[C@H](OC(C)=O)[C@@H]1C [RIF, rifampin] | – | – | – | – | S
9 | CO[C@@]1(NC(=O)Cc2cccs2)C(=O)N2C(C(=O)O)=C(COC(N)=O)CS[C@@H]21 [FOX, cefoxitin] | R | – | S | S | S
10 | NC[C@H]1O[C@H](O[C@H]2[C@H](O)[C@@H](O[C@H]3O[C@H](CO)[C@@H](O)[C@H](N)[C@H]3O)[C@H](N)C[C@@H]2N)[C@H](N)C[C@@H]1O [TOB, tobramycin] | – | S | – | – | –
11 | Cc1onc(-c2ccccc2)c1C(=O)N[C@@H]1C(=O)N2[C@@H]1SC(C)(C)[C@@H]2C(=O)O [OXA, oxacillin] | – | – | – | – | S
12 | CO/N=C(\C(=O)N[C@@H]1C(=O)N2C(C(=O)[O-])=C(C[N+]3(C)CCCC3)CS[C@H]12)c1csc(N)n1 [FEP, cefepime] | R | S | S | S | –
13 | sulperazon [CLS] | – | S | – | – | –
14 | C[C@H]1[C@H](NC(=O)/C(=N\OC(C)(C)C(=O)O)c2csc(N)n2)C(=O)N1S(=O)(=O)O [ATM, aztreonam] | – | S | – | – | –
15 | CO/N=C(\C(=O)N[C@@H]1C(=O)N2C(C(=O)O)=C(COC(N)=O)CS[C@H]12)c1ccco1 [CXM, cefuroxime] | R | R | S | R | –
16 | CO/N=C(\C(=O)N[C@@H]1C(=O)N2C(C(=O)O)=C(COC(C)=O)CS[C@H]12)c1csc(N)n1 [CTX, cefotaxime] | R | S | S | R | –
17 | CCN1CCN(C(=O)N[C@@H](C(=O)N[C@@H]2C(=O)N3[C@@H]2SC(C)(C)[C@@H]3C(=O)O)c2ccccc2)C(=O)C1=O [PIP, piperacillin] | R | S | I | R | –
18 | CC[C@H]1OC(=O)[C@H](C)[C@@H](O[C@H]2C[C@@](C)(OC)[C@@H](O)[C@H](C)O2)[C@H](C)[C@@H](O[C@@H]2O[C@H](C)C[C@H](N(C)C)[C@H]2O)[C@](C)(O)C[C@@H](C)C(=O)[C@H](C)[C@@H](O)[C@]1(C)O [ERY, erythromycin] | – | – | – | – | R
19 | ticarcillin/clavulanic acid [TIM] | – | S | – | – | –
20 | Cc1nnc(SCC2=C(C(=O)O)N3C(=O)[C@@H](NC(=O)Cn4cnnn4)[C@H]3SC2)s1 [CZO, cefazolin] | R | – | S | R | –
21 | gentamicin | R | S | S | R | S
22 | NCC[C@H](O)C(=O)N[C@@H]1C[C@H](N)[C@@H](O[C@H]2O[C@H](CN)[C@@H](O)[C@H](O)[C@H]2O)[C@H](O)[C@H]1O[C@H]1O[C@H](CO)[C@@H](O)[C@H](N)[C@H]1O [AMK, amikacin] | S | S | S | S | S
23 | CN[C@H](CC(C)C)C(=O)N[C@H]1C(=O)N[C@@H](CC(N)=O)C(=O)N[C@H]2C(=O)N[C@H]3C(=O)N[C@H](C(=O)N[C@H](C(=O)O)c4cc(O)cc(O)c4-c4cc3ccc4O)[C@H](O)c3ccc(c(Cl)c3)Oc3cc2cc(c3O[C@@H]2O[C@H](CO)[C@@H](O)[C@H](O)[C@H]2O[C@H]2C[C@](C)(N)[C@H](O)[C@H](C)O2)Oc2ccc(cc2Cl)[C@H]1O [VAN, vancomycin] | – | – | – | – | S
24 | CCn1cc(C(=O)O)c(=O)c2cc(F)c(N3CCNCC3)cc21 [NOR, norfloxacin] | – | S | – | – | –
25 | C[C@H]1COc2c(N3CCN(C)CC3)c(F)cc3c(=O)c(C(=O)O)cn1c23 [LEV, left-handed oxygen fluorine] | – | S | – | – | –
26 | trimethoprim-sulfamethoxazole [SXT] | R | – | R | R | S
27 | O=C(N[C@H](CO)[C@H](O)c1ccc([N+](=O)[O-])cc1)C(Cl)Cl [CHL, chloramphenicol] | S | – | I | R | –
